Ten molecules from US20260217673A1, “NOVEL COMPOUND AS RON INHIBITOR” (LG CHEM, LTD., priority 2022, published 2026) can be followed below.

The target in assay [1] is cMET (Homo sapiens, UniProt P08581). In words: MET (cMET) enzyme inhibitory activity, TR-FRET kinase assay. The settings on record: cMET protein, TK peptide substrate. The assay is classed as biochemical. Here is the method: In addition, to measure cMET enzyme activity inhibition, an experiment was performed by the same method as the experiment for measuring the RON enzyme activity inhibition.
Specifically, the compound was prepared at a concentration of 1 mM with 100% DMSO and serially diluted 10 times through 3-fold dilution. 2 μl of the serially diluted compound was added to a 96-well plate containing 48 μl 1× kinase reaction buffer (50 mM HEPES (pH 7.4), 0.05% BSA, 0.005% Tween-20, 1 mM DTT, 0.5 mM MnCl2, 20 mM MgCl2).
The cMET protein was diluted in a cMET storage buffer (50 mM Tris-HCl (pH 7.5), 150 mM NaCl, 0.05% Brij35, 1 mM DTT, 10% glycerol) to a concentration of 263 nM, and then diluted again with 1× kinase reaction buffer to 2 nM. As a substrate cocktail, a MET-specific substrate mixture (5 μM TK peptide, 10 mM ATP) was prepared at a concentration twice the final reaction concentration.
(§1) After that, a 384-well plate was prepared, and 2.5 μl of the diluted example compound was added to each of the experimental group wells, and 2.5 μl of a 4% DMSO solution was dispensed into high control wells and low control wells.
(§2) Afterward, 2.5 μl of 2 nM cMET was dispensed to the high control wells and the experimental group wells, and 2.5 μl of 1× kinase reaction buffer was added to the low control wells, and after centrifugation at 1000 RPM for 40 seconds at room temperature, the mixtures were incubated at room temperature for 20 to 30 minutes. Then, 5 μl of the substrate cocktail (2×) was dispensed into all wells, and after centrifugation at 1000 RPM for 40 seconds at room temperature, the mixtures were incubated at room temperature for 60 minutes. Afterward, 5 μl of 90 mM EDTA was added to all wells to terminate the reaction, and the mixtures were incubated again at room temperature for 5 minutes. Thereafter, 5 μl of 4× phosphotyrosine antibodies (Perkin Elmer) containing europium was added to all wells and incubated at room temperature for 60 minutes. After the incubation, the 384-well-plate was read with a Vison plate reader. At this time, the excitation wavelength was 340 nm, and the emission wavelengths were 620 nm and 665 nm. The IC50 value of each example compound was derived using the GraphPd Prism7 program.
On the technique in general: TR-FRET usually uses a lanthanide donor and a delayed reading to cut background.

Assay [2] deals with RON (Homo sapiens, UniProt Q04912). Description: RON inhibitory activity, TR-FRET kinase assay. Format: biochemical. The settings on record: RON protein, ULight-labeled Poly GT substrate. The method, then:
To measure the RON inhibitory activity of the example compounds, the IC50 of the compounds was measured using time-resolved fluorescence energy transfer (TR-FRET).
Specifically, the compound was prepared at a concentration of 1 mM with 100% DMSO and serially diluted 10 times through 3-fold dilution. 2 μl of the serially diluted compound was added to a 96-well plate containing 48 μl of 1× kinase reaction buffer (50 mM HEPES (pH 7.4), 0.01% Tween-20, 5 mM DTT, 0.5 mM Na3VO4, 2 mM EGTA, 10 mM MgCl2).
The RON protein was diluted with a RON storage buffer (50 mM Tris-HCl (pH 7.5), 150 mM NaCl, 0.5 mM EDTA, 0.02% Triton X-100) to a concentration of 49.3 nM, and then diluted again with 1× kinase reaction buffer to be 0.4 nM. As a substrate cocktail, a RON-specific substrate mixture (40 μM ULight-labeled Poly GT, 100 nM ATP) was prepared at a concentration twice the final reaction concentration.
as §1
as §2, with “of 0.4” for “of 2”, “nM RON” for “nM cMET”, “dispensed into” for “dispensed to”, “of 30” for “of 90”

Sequence of RON (Q04912 25-1400, species assumed): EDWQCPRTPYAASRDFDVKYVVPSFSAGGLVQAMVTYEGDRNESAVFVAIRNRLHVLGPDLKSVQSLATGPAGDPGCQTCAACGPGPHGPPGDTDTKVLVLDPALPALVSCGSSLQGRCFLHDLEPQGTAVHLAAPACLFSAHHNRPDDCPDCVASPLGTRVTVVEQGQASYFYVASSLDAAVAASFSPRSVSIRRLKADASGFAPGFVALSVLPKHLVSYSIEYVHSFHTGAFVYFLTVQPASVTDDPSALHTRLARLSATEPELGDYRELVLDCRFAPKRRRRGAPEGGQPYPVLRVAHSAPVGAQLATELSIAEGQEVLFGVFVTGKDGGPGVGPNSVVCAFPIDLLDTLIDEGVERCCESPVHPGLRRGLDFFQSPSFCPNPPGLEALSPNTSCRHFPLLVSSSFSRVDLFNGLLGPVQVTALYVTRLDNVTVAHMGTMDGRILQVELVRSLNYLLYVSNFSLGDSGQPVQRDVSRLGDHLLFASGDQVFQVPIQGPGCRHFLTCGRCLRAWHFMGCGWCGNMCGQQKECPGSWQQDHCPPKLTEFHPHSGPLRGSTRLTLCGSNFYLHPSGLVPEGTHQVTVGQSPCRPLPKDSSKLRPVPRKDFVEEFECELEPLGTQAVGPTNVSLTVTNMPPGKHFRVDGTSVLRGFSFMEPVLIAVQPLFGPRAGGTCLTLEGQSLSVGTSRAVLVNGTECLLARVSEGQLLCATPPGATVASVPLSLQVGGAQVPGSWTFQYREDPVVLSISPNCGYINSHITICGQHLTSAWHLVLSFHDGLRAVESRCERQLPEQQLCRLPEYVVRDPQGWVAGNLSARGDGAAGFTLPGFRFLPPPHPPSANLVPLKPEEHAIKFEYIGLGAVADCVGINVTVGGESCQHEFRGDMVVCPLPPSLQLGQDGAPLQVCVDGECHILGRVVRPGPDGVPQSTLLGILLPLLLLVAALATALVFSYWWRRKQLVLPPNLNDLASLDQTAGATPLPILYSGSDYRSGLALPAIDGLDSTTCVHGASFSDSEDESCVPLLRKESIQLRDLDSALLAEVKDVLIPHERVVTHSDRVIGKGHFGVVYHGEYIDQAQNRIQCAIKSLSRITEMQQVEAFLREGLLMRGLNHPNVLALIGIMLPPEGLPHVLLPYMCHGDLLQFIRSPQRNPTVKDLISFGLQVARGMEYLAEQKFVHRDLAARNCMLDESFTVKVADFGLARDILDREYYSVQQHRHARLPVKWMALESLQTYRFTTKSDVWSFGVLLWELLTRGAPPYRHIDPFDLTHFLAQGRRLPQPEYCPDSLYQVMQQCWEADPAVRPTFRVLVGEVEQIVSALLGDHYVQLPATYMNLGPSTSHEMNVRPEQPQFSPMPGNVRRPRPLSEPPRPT
Sequence of cMET (P08581 25-1390): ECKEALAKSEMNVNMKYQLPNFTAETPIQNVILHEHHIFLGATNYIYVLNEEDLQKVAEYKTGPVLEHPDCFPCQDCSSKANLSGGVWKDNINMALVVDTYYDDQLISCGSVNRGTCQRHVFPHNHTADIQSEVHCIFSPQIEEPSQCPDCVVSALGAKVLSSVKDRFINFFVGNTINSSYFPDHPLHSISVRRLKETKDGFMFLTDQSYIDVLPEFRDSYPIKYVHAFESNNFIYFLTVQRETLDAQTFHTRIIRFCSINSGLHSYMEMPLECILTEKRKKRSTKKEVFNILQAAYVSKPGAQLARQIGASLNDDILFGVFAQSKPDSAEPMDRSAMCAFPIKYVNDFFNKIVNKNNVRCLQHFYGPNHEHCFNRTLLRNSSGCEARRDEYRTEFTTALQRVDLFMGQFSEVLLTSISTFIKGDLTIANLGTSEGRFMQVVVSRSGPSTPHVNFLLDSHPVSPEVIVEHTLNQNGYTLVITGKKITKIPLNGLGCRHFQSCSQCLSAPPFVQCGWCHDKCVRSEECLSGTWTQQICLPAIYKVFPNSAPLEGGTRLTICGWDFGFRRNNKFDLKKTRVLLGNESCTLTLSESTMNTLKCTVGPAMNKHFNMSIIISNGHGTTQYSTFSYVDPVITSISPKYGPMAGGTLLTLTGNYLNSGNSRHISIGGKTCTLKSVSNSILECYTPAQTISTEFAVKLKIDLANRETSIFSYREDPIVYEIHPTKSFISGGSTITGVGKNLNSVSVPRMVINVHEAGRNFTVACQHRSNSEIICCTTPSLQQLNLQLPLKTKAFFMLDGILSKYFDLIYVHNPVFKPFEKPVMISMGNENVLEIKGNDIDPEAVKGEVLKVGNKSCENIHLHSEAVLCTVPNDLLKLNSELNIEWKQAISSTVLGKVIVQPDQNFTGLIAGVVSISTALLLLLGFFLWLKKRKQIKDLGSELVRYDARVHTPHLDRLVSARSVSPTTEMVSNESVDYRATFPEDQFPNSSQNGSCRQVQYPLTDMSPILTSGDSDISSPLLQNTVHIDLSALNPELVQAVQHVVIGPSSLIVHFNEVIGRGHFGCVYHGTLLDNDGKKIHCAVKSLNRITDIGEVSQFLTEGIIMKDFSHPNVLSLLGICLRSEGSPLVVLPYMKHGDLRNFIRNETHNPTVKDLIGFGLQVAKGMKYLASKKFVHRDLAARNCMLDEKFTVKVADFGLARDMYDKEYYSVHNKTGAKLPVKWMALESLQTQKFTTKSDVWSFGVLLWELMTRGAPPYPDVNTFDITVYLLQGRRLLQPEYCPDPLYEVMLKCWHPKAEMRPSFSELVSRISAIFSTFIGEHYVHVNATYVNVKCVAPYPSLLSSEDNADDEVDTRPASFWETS

For orientation: IC50 means the midpoint of a concentration-inhibition curve. A higher IC50 goes with a need for much substance. In the case of `Nc1nccc(Oc2c(F)cc(NC(=O)c3cnn(-c4ncccn4)c3C(F)(F)F)cc2F)c1C1CC1` [Example 41, N-(4-((2-amino-3-cyclopropylpyridin-4-yl)oxy)-3,5-difluorophenyl)-1-(pyrimidin-2-yl)-5-(trifluoromethyl)-1H-pyrazole-4-carboxamide], the figures for the IC50 in assay [1] and in assay [2] were 0.5 to 5 µM and under 0.05 µM, respectively.
For the molecule `Nc1nccc(Oc2c(F)cc(NC(=O)c3cnn(-c4ccccn4)c3C(F)(F)F)cc2F)c1I` [Example 14, N-(4-((2-amino-3-iodopyridin-4-yl)oxy)-3,5-difluorophenyl)-1-(pyridin-2-yl)-5-(trifluoromethyl)-1H-pyrazole-4-carboxamide], the IC50 in assay [1] is over 5 µM; in assay [2], under 0.05 µM.
Take `CC(C)c1c(Oc2c(F)cc(NC(=O)c3cnn(-c4ncccc4F)c3C(F)(F)F)cc2F)ccnc1N` [Example 46, N-(4-((2-amino-3-isopropylpyridin-4-yl)oxy)-3,5-difluorophenyl)-1-(3-fluoropyridin-2-yl)-5-(trifluoromethyl)-1H-pyrazole-4-carboxamide]: the half-inhibitory concentration (IC50) in assay [1] is 0.5 to 5 µM; in assay [2], under 0.05 µM.
The like results for `Nc1ncnc(Oc2c(F)cc(NC(=O)c3cnn(-c4ccccc4)c3C(F)(F)F)cc2F)c1Cl` [Example 9, N-(4-((6-amino-5-chloropyrimidin-4-yl)oxy)-3,5-difluorophenyl)-1-phenyl-5-(trifluoromethyl)-1H-pyrazole-4-carboxamide] were, in that order, over 5 µM and under 0.05 µM.
For `Nc1ncnc(Oc2c(F)cc(NC(=O)c3cnn(-c4ncccc4Cl)c3C(F)(F)F)cc2F)c1Cl` [Example 11, N-(4-((6-amino-5-chloropyrimidin-4-yl)oxy)-3,5-difluorophenyl)-1-(3-chloropyridin-2-yl)-5-(trifluoromethyl)-1H-pyrazole-4-carboxamide], the IC50 in assay [1] is 0.5 to 5 µM; in assay [2], under 0.05 µM.
Consider `Nc1nccc(Oc2c(F)cc(NC(=O)c3cnn(-c4ncccc4Cl)c3C(F)(F)F)cc2F)c1C1CC1` [Example 39, N-(4-((2-amino-3-cyclopropylpyridin-4-yl)oxy)-3,5-difluorophenyl)-1-(3-chloropyridin-2-yl)-5-(trifluoromethyl)-1H-pyrazole-4-carboxamide], for which the IC50 in assay [1] was 0.5 to 5 µM; in assay [2], under 0.05 µM.
The matching figures for `N#Cc1c(Oc2c(F)cc(NC(=O)c3cnn(-c4ncccn4)c3C(F)(F)F)cc2F)ccnc1N` [Example 35, N-(4-((2-amino-3-cyanopyridin-4-yl)oxy)-3,5-difluorophenyl)-1-(pyrimidin-2-yl)-5-(trifluoromethyl)-1H-pyrazole-4-carboxamide]: 0.5 to 5 µM and under 0.05 µM.
The like results for `CCOCC(=O)N1CCC(n2ncc(C(=O)Nc3cc(F)c(Oc4ccnc(N)c4Cl)c(F)c3)c2C(F)(F)F)CC1` [Example 60, N-(4-((2-amino-3-chloropyridin-4-yl)oxy)-3,5-difluorophenyl)-1-(1-(2-ethoxyacetyl)piperidin-4-yl)-5-(trifluoromethyl)-1H-pyrazole-4-carboxamide] were, in that order, 0.5 to 5 µM and 0.5 to 5 µM.
The matching figures for `Nc1nccc(Oc2c(F)cc(NC(=O)c3cnn(-c4ccccc4)c3C(F)(F)F)cc2F)c1I` [Example 13, N-(4-((2-amino-3-iodopyridin-4-yl)oxy)-3,5-difluorophenyl)-1-phenyl-5-(trifluoromethyl)-1H-pyrazole-4-carboxamide]: 0.5 to 5 µM and under 0.05 µM.
As for `COCCCN1CCC(n2ncc(C(=O)Nc3cc(F)c(Oc4ccnc(N)c4Cl)c(F)c3)c2C(F)(F)F)CC1` [Example 59, N-(4-((2-amino-3-chloropyridin-4-yl)oxy)-3,5-difluorophenyl)-1-(1-(3-methoxypropyl)piperidin-4-yl)-5-(trifluoromethyl)-1H-pyrazole-4-carboxamide], the values for the IC50 in assay [1] and in assay [2] were over 5 µM and 0.5 to 5 µM, respectively.
